Read-outs that look alike come from different tables or passages of the source.
What was measured:
[1] = test system: E. coli K12 cells; type: cell-based
Protocol: Since culture-based methods are contingent upon the isolation of viable bacteria, the detection of E. coli following MIL-based cell extraction is influenced by the cytotoxicity of MILs. To study the effect of MILs on the growth of E. coli, a 1 mL aliquot of LB media was inoculated with 8.0×10^2±0.5×10^2 CFUs mL^−1 and spiked with approximately 10 μL of a MIL. The mixture was agitated by vortex to simulate the recovery procedure after which a 100 μL aliquot of the suspension was plated on selective agar.

[2] = Thermal stability, MIL film in GC capillary with flame ionization detection; type: physicochemical; conditions: for onset of decomposition (thermal stability): 40° C. to 350° C. at 1° C./min
Protocol: The thermal stability of all exemplary MILs was tested by monitoring the thermal volatilization/decomposition of the MIL when the MIL was used as a stationary phase in gas chromatography. To achieve this, an approximate 0.25-0.28 μm film of IL/MIL was immobilized on the inner wall of a fused silica capillary. The IL/MIL coated capillary was then heated slowly in a GC oven and an ultra-sensitive flame ionization detector (FID) was used to detect any volatilization/decomposition of the IL/MIL. These tests were run using a temperature program starting at 40° C. and increased at 1° C./min to 350° C. on an Agilent 6850 gas chromatograph with a flame ionization detector (Santa Clara, Calif., USA). The [P66614^+] [Cl^−] IL was also coated under the same conditions and was used as a reference.

[3] = test system: E. coli; test: PCR amplification of LB back-extraction solution after MIL-based extraction; conditions: for E. coli concentration at which bacterial pDNA was detected by PCR: cell recovery in LB media prior to PCR, 2 mL sample; for amplicon after extraction of cell filtrate (cell-free DNA): filtrate of 1.68×10^5 CFUs mL^−1 suspension through 0.22 μm filter
Protocol: (§1) A general schematic for the MIL-based cell extraction procedure is depicted in FIG. 10. In a 4 mL screw cap glass vial, a controlled volume (e.g., 10 μL) of MIL was added to 2 mL of diluted cell suspension and dispersed into microdroplets by vortex agitation for 15-120 s. Following the dispersive extraction, a 0.9 T magnetic field was applied to collect the cell-enriched MIL extraction phase. After the aqueous phase was decanted, the MIL was subjected to a static wash with 2 mL of deionized water to ensure that residual cell suspension was removed. The extracted E. coli was recovered from the MIL solvent by vortexing the MIL in 1 mL of LB media from 30 to 300 s. Following back-extraction, aliquots of the cell-enriched LB media were cultured on selective agar as well as analyzed by PCR.
Following the recovery of E. coli cells from the MIL extraction phase, an aliquot of the LB back-extraction solution was analyzed by PCR. […] The thermal protocol used for amplification of the MTAP gene was as follows: 5 min initial denaturation at 95° C. followed by 30 cycles of 30 s denaturation at 95° C., 45 s annealing at 54° C., and elongation for 45 s at 72° C.
After thermal cycling, the PCR products were mixed with 10 μL of bromophenol blue tracking dye solution (30% glycerol v/v) and loaded on a 1% agarose gel stained with SYBR Safe DNA gel stain. The PCR amplicon was subjected to electrophoresis at approximately 4 V cm^−1 and subsequently visualized using a transilluminator.
To improve detection limits, cells were recovered from the MIL phase using […] and a 1 μL aliquot of LB media was analyzed by PCR amplification. […] MILs as extraction media.
MIL. […] 1999; 37:2479-82). It should be noted that PCR assays are unable to distinguish between live and dead cells and, therefore, are complementary to microbiological culture for the determination of viable cells in a sample.

[4] = Magnetic susceptibility, SQUID magnetometer; type: physicochemical; conditions: for μeff, effective magnetic moment: from magnetic susceptibility data, SQUID
Protocol: The μeff values for each exemplary MIL were determined using a Quantum Design MPMS SQUID magnetometer following procedures similar to those previously reported. (Y. Mudryk, P. Manfrinetti, V. Smetana, J. Liu, M. L. Fornasini, A. Provino, V. K. Pecharsky, G. J. Miller and K. A. Gschneidner, J. Alloys Compd, 2013, 557, 252-260).

[5] = Hydrophobicity comparison: 50 μL MIL in 12 mL water, vortexed and heated to 85° C.; type: physicochemical; conditions: 50 μL MIL in 12 mL deionized water, 85° C. for 10 minutes
Protocol: […] […] Vortexing the MIL droplet caused dispersion of the MIL into fine microdroplets that were suspended within the aqueous solution, ultimately settling at the bottom of the vessel. […] Each MIL was vortexed and heated to 85° C. for 10 minutes.

[6] = test system: E. coli; test: MIL-based extraction of viable E. coli, selective culture and colony enumeration; conditions: aqueous solutions of 1.68×10^5 CFUs mL^−1
Protocol: For each cell extraction experiment, 2 mL of sterile LB media with 100 μg mL^−1 carbenicillin was inoculated with 0.5 μL of E. coli glycerol stock and incubated overnight at 37° C. and 225 rpm. The overnight culture was centrifuged at 2820 g for 8 min and the supernatant discarded. The cells were then vortexed for 15 s in 2 mL of deionized water and centrifuged once again at 2820 g for 8 min. Following a total of three washes, the cells were re-suspended in 1 mL of deionized water. The concentration of cells within the suspension was initially determined by measuring the optical density of the sample at 600 nm (OD600), where an OD600 equal to 1.000 represents 8×10^8 E. coli cells mL^−1. The bacterial suspension was diluted to an OD600 value of 0.021 (1.68×10^7 cells mL^−1), after which 10-fold serial dilutions were performed to yield the desired sample concentration. Since the sample concentrations were below the detection limit of the spectrophotometer, the final concentration of each sample (in CFUs mL^−1) was obtained using a plate counting method. Briefly, 15 μL of diluted cell suspension were mixed with 985 μL of LB media and vortexed for 3 min. A […] aliquot of the suspension was spread onto a selective LB agar plate with 100 μg mL^−1 carbenicillin and incubated overnight at 37° C. to obtain visible colonies.
as §1
To detect viable bacteria recovered from the MIL extraction solvent, a culture-based method selective for E. coli transformants was employed. Following MIL-based extraction, a 100 μL aliquot of the LB back-extraction solution was plated on LB agar containing 100 μg mL^−1 carbenicillin and incubated overnight at 37° C. Visible colonies were counted, tabulated, and compared to the colonies obtained for the sample prior to extraction. The enrichment factor (EF) from the MIL-based extraction was calculated by Equation 1, where CMIL is the concentration of CFUs within the MIL extraction phase and CS represents the concentration of CFUs in the bacterial suspension prior to extraction. EF=CMIL/CS Equation 1
To determine if MILs can extract viable E. coli cells, aqueous solutions of 1.68×10^5 CFUs mL^−1 were extracted with each of the seven MILs using an approach that is similar to one depicted in FIG. 10. […] [Co(hfacac)3^−] MILs with the greatest number of colonies obtained from the Ni(II)-based MIL extractions.

[7] = 1 second vial inversion (viscosity comparison); type: physicochemical; conditions: 1 second inversion of each MIL
Text: FIG. 2 compares the viscosities of [P66614^+]2[MnCl4^2−], [P66614^+][Ni(hfacac)3^−], and [P66614^+][Nd(hfacac)4^−] by performing a 1 second inversion of each MIL.

[8] = 25° C.; cited from earlier work
[9] = Pipette transfer at room temperature (preliminary viscosity testing); type: physicochemical; conditions: neat MIL, without heating
Protocol: (§2) Pairing of intermediate 1a to an imidazolium-based cation was carried out for preliminary viscosity and hydrophobicity testing. A metathesis reaction was performed between 1-(6-hydroxyhexyl)-3-methylimidazolium chloride [MC6OHIM^+][Cl^−] and intermediate 1a to form [MC6OHIM^+] [Co(hfacac)3^−]. […] Since the broad applicability of hydrophobic MILs is very much dependent upon the ease with which they can be transferred using traditional liquid handling methods, the [P66614^+] cation was selected for preparation of the hfacac-based MILs.

[10] = Water solubility observation of intermediates and preliminary MILs (hydrophobicity testing); type: physicochemical; conditions: color change in the aqueous solution two hours after addition of the MIL
Protocol: The [P66614^+][Cl^−] IL is commercially available.
as §2

[11] = LB media with 8.0×10^2 CFUs mL^−1, approximately 10 μL of MIL, compared to unexposed standard

Row | Structure (SMILES) | E. coli concentration at which bacterial pDNA was detected by PCR [3] | μeff, effective magnetic moment [4] [μB] | dissolution into the aqueous phase [5] | influence on the growth of E. coli [1, 11] | viscosity [8] [cP] | other results
1 | CCCCCCCCCCCCCC[P+](CCCCCC)(CCCCCC)CCCCCC.O=C(C=C([O-])C(F)(F)F)C(F)(F)F.O=C(C=C([O-])C(F)(F)F)C(F)(F)F.O=C(C=C([O-])C(F)(F)F)C(F)(F)F.[Co+2] [MIL 1, trihexyl(tetradecyl)phosphonium tris(hexafluoroacetylaceto)cobaltate(II)] | 1.68×10^5 CFUs mL^−1 | 4.3 | no sign of dissolution into the aqueous phase |  |  | influence on the growth of E. coli [1]: little to no influence on the growth of E. coli; sharp increase in the rate of decomposition [2]: around 200 °C; onset of decomposition (thermal stability) [2]: approximately 130 °C
2 | CCCCCCCCCCCCCC[P+](CCCCCC)(CCCCCC)CCCCCC.O=C(C=C([O-])C(F)(F)F)C(F)(F)F.O=C(C=C([O-])C(F)(F)F)C(F)(F)F.O=C(C=C([O-])C(F)(F)F)C(F)(F)F.[Mn+2] [MIL 2, [P66614^+] tris(hexafluoroacetylaceto)manganate(II)] |  |  |  |  |  | influence on the growth of E. coli [1]: little to no influence on the growth of E. coli; degradation start, higher than the cobalt-based MIL [2]: approximately 25 °C; visible colonies after back-extraction with LB media and culture on selective agar [6]: did not yield any visible colonies; μeff ([4]; at higher temperatures): 5.5 μB; μeff ([4]; at lower temperatures): 5.8 μB
3 | CCCCCCCCCCCCCC[P+](CCCCCC)(CCCCCC)CCCCCC.O=C(C=C([O-])C(F)(F)F)C(F)(F)F.O=C(C=C([O-])C(F)(F)F)C(F)(F)F.O=C(C=C([O-])C(F)(F)F)C(F)(F)F.O=C(C=C([O-])C(F)(F)F)C(F)(F)F.[Dy+3] [MIL 4, [P66614^+] tetrakis(hexafluoroacetylaceto)dysprosate(III)] | 1.68×10^5 CFUs mL^−1 | 9.7 |  | little to no influence on the growth of E. coli |  | amplicon after extraction of cell filtrate (cell-free DNA) [3]: No amplicon was detected
4 | CCCCCCCCCCCCCC[P+](CCCCCC)(CCCCCC)CCCCCC.O=C(C=C([O-])C(F)(F)F)C(F)(F)F.O=C(C=C([O-])C(F)(F)F)C(F)(F)F.O=C(C=C([O-])C(F)(F)F)C(F)(F)F.O=C(C=C([O-])C(F)(F)F)C(F)(F)F.[Gd+3] [MIL 5, [P66614^+] tetrakis(hexafluoroacetylaceto)gadolinate(III)] |  | 7.7 |  | hindered the proliferation of cells |  | 
5 | CCCCCCCCCCCCCC[P+](CCCCCC)(CCCCCC)CCCCCC.O=C(C=C([O-])C(F)(F)F)C(F)(F)F.O=C(C=C([O-])C(F)(F)F)C(F)(F)F.O=C(C=C([O-])C(F)(F)F)C(F)(F)F.O=C(C=C([O-])C(F)(F)F)C(F)(F)F.[Nd+3] [MIL 6, [P66614^+] tetrakis(hexafluoroacetylaceto)neodymate(III)] | 1.68×10^5 CFUs mL^−1 | 2.8 | no sign of dissolution into the aqueous phase | little to no influence on the growth of E. coli |  | onset of decomposition (thermal stability) [2]: around 225 °C; amplicon after extraction of cell filtrate (cell-free DNA) [3]: No amplicon was detected; movement down the vial [7]: flow easily toward the bottom of the vial
6 | CCCCCCCCCCCCCC[P+](CCCCCC)(CCCCCC)CCCCCC [No. 1, [P66614^+] tetrachloroferrate(III), reference compound] |  |  | dissolving into the aqueous solution | hindered the proliferation of cells | 650 | 
7 | C[n+]1ccn(CCCCCCO)c1.O=C(C=C([O-])C(F)(F)F)C(F)(F)F.O=C(C=C([O-])C(F)(F)F)C(F)(F)F.O=C(C=C([O-])C(F)(F)F)C(F)(F)F.[Co+2] [[MC6OHIM^+] [Co(hfacac)3^−]] |  |  |  |  |  | transfer with a pipette [9]: could not be transferred with a pipette; solubility in water [10]: soluble in water
8 | CCCCCCCCCCCCCC[P+](CCCCCC)(CCCCCC)CCCCCC.CCCCCCCCCCCCCC[P+](CCCCCC)(CCCCCC)CCCCCC.CCCCCCCCCCCCCC[P+](CCCCCC)(CCCCCC)CCCCCC.[Cl][Gd-3]([Cl])([Cl])([Cl])([Cl])[Cl] [[P66614]3[GdCl6^3−], [P66614] hexachlorogadolinate(III)] |  |  |  |  | 18390 | 
9 | CCCCCCCCCCCCCC[P+](CCCCCC)(CCCCCC)CCCCCC.CCCCCCCCCCCCCC[P+](CCCCCC)(CCCCCC)CCCCCC.[Cl][Mn-2]([Cl])([Cl])[Cl] [[P66614^+]2[MnCl4^2−], [P66614^+] tetrachloromanganate(II), reference compound] |  |  |  |  | 75230 | movement down the vial [7]: little to no movement down the vial
10 | CCCCCCCCCCCCCC[P+](CCCCCC)(CCCCCC)CCCCCC.[Cl-] [[P66614^+] [Cl^−], Trihexyl(tetradecyl)phosphonium chloride, reference compound] |  |  |  |  |  | thermal decomposition compared with the MILs ([2]; reference): lowest thermal decomposition
